Our source for the IC50 and melting point values is patent US7776900B2, “Benzimidazole derivatives and their use for modulating the GABAAreceptor complex” (Neurosearch A/S, priority 2005, dated 2010).

Counter-ions that a name gives are not always drawn.

The target of the first series is GABAA receptor complex (benzodiazepine modulatory unit). Briefly: In vitro inhibition of 3H-flunitrazepam (3H-FNM) binding. More on the design: species or system rat. Conditions: inhibition of specific binding of 3H-FNM (1 nM), cerebral cortex membranes from male Wistar rats, 40 min at 2° C. As for the experimental part:
In vitro Inhibition of ^3H-flunitrazepam (^3H-FNM) Binding
The GABA recognition site and the benzodiazepine modulatory unit can selectively be labelled with ^3H-flunitrazepam.
Preparations are performed at 0-4° C. unless otherwise indicated. Cerebral cortex from male Wistar rats (150-200 g) is homogenised for 5-10 sec in 20 ml Tris-HCl (30 mM, pH 7.4) using an Ultra-Turrax homogeniser. The suspension is centrifuged at 27,000×g for 15 min and the pellet is washed three times with buffer (centrifuged at 27,000×g for 10 min). The washed pellet is homogenized in 20 ml of buffer and incubated on a water bath (37° C.) for 30 min to remove endogenous GABA and then centrifuged for 10 min at 27,000×g. The pellet is then homogenized in buffer and centrifuged for 10 min at 27,000×g. The final pellet is resuspended in 30 ml buffer and the preparation is frozen and stored at −20° C.
The membrane preparation is thawed and centrifuged at 2° C. for 10 min at 27,000×g. The pellet is washed twice with 20 ml 50 mM Tris-citrate, pH 7.1 using an Ultra-Turrax homogeniser and centrifuged for 10 min at 27,000×g. The final pellet is resuspended in 50 mM Tris-citrate, pH 7.1 (500 ml buffer per g of original tissue), and then used for binding assays. Aliquots of 0.5 ml tissue are added to 25 μl of test solution and 25 μl of ^3H-FNM (1 nM, final concentration), mixed and incubated for 40 min at 2° C. Non-specific binding is determined using Clonazepam (1 μM, final concentration). After incubation the samples are added 5 ml of ice-cold buffer and poured directly onto Whatman GF/C glass fibre filters under suction and immediately washed with 5 ml ice-cold buffer. The amount of radioactivity on the filters is determined by conventional liquid scintillation counting. Specific binding is total binding minus non-specific binding.
25-75% inhibition of specific binding must be obtained, before calculation of an IC50.
The test value will be given as IC50 (the concentration (μM) of the test substance which inhibits the specific binding of ^3H-FNM by 50%). […]
For the compound `CC(=NO)c1ccc2c(c1)ncn2-c1cccc(COCc2ncnn2C)c1` [Compound 22a, 1-{1-[3-(2-Methyl-2H-[1,2,4]triazol-3-ylmethoxymethyl)-phenyl]-1H-benzoimidazol-5-yl}-ethanone oxime], the IC50 turned out to be 2.1 nM. In other words, the single-digit nanomolar range. In turn, `CC(O)c1ccc2c(c1)ncn2-c1cccc(COCc2ncnn2C)c1` (centres unmarked) [Compound 23, 1{-1-[3-(2-Methyl-2H-[1,2,4]triazol-3-ylmethoxymethyl)-phenyl]-1H-benzoimidazol-5-yl}-ethanol] showed an IC50 of 22 nM. The compound `CCOC(C)c1ccc2c(c1)ncn2-c1cccc(COCc2ncnn2C)c1` (centres unmarked) [Compound 24b, 5-(1-Ethoxy-ethyl)-1-[3-(2-methyl-2H-[1,2,4]triazol-3-ylmethoxymethyl)-phenyl]-1H-benzoimidazole] displayed an IC50 of 9.2 nM. This IC50 lies about 2.4-fold lower than the previous one.

System in the next series: not given
Experiment: not given
Conditions: not given
As for `c1ccc(COCc2cccc(-n3cnc4cc(CN5CCCC5)ccc43)c2)nc1`, the melting point lay within 192 to 194 °C. Still for that read-out and setting: under `ON=Cc1ccc2c(c1)ncn2-c1cccc(COCc2ccccn2)c1` stands 154 to 154.8 °C; under `ON=Cc1ccc2c(c1)ncn2-c1cccc(CNCc2ccc(F)c(F)c2)c1`, 165 to 167 °C.

As to `CCOC(=O)c1ccc2c(c1)ncn2-c1cccc(COCc2ccccn2)c1`, the melting point lay in the range of 99.8 to 101.2 °C.

Regarding `CC(=NO)c1ccc2c(c1)ncn2-c1cccc(COCc2ncnn2C)c1` (as salt: chloride) [Compound 22a, 1-{1-[3-(2-Methyl-2H-[1,2,4]triazol-3-ylmethoxymethyl)-phenyl]-1H-benzoimidazol-5-yl}-ethanone oxime], the melting point lay within 178.8 to 180.4 °C.
